Experimental data published in ChEMBL document CHEMBL5131424, “Synthesis and evaluation of antibacterial and trypanocidal activity of derivatives of monensin A” (Bioorg Med Chem Lett, 2022).
Values after ≈ are worked out from the molar mass of the structure shown.

Legend:
Staphylococcus aureus [1] = assay: Antibacterial activity against Staphylococcus aureus NCTC 4163; format: functional
Staphylococcus aureus [2] = assay: Antibacterial activity against Staphylococcus aureus ATCC 25923; format: functional
Staphylococcus aureus [3] = assay: Antibacterial activity against Staphylococcus aureus ATCC 6538; format: functional
Staphylococcus aureus [4] = assay: Antibacterial activity against Staphylococcus aureus ATCC 29213; format: functional
[5] = system: Staphylococcus epidermidis; assay: Antibacterial activity against Staphylococcus epidermidis ATCC 12228; format: functional
[6] = system: Staphylococcus epidermidis; assay: Antibacterial activity against Staphylococcus epidermidis ATCC 35984; format: functional
Escherichia coli [7] = assay: Antibacterial activity against Escherichia coli NCTC 10538; format: functional
Escherichia coli [8] = assay: Antibacterial activity against Escherichia coli ATCC 25922; format: functional
Pseudomonas aeruginosa [9] = assay: Antibacterial activity against Pseudomonas aeruginosa ATCC 15442; format: functional
Pseudomonas aeruginosa [10] = assay: Antibacterial activity against Pseudomonas aeruginosa […]; format: functional
[11] = system: Staphylococcus epidermidis; assay: Antibacterial activity against Staphylococcus epidermidis 825/19; format: functional
[12] = system: Staphylococcus epidermidis; assay: Antibacterial activity against Staphylococcus epidermidis 829/19; format: functional
[13] = system: Staphylococcus epidermidis; assay: Antibacterial activity against Staphylococcus epidermidis 830/19; format: functional
[14] = system: Staphylococcus epidermidis; assay: Antibacterial activity against Staphylococcus epidermidis 834/19; format: functional
[15] = system: Staphylococcus epidermidis; assay: Antibacterial activity against Staphylococcus epidermidis 840/19; format: functional
[16] = system: Staphylococcus epidermidis; assay: Antibacterial activity against Staphylococcus epidermidis 845/19; format: functional
[17] = system: Staphylococcus epidermidis; assay: Antibacterial activity against Staphylococcus epidermidis 848/19; format: functional
[18] = system: Staphylococcus epidermidis; assay: Antibacterial activity against Staphylococcus epidermidis 851/19; format: functional
Trypanosoma brucei = assay: Antitrypanosomal activity against bloodstream form of Trypanosoma brucei clone 427-221a measured after 24 hrs by resazurin dye based assay; format: functional
[19] = (§1) Cytotoxicity against human HL-60 cells assessed as reduction in cell viability measured after 24 hrs by resazurin dye based assay; format: toxicity; conditions: HL-60 cells
HL-60 = assay: as §1; format: toxicity; conditions: hl-60, 24 h
[20] = Selectivity ratio of MIC for cytotoxicity against human HL-60 cells to MIC for antitrypanosomal activity against bloodstream form of Trypanosoma brucei clone 427-221a; format: toxicity, cell-based
[21] = Selectivity ratio of GI50 for cytotoxicity against human HL-60 cells to GI50 for antitrypanosomal activity against bloodstream form of Trypanosoma brucei clone 427-221a; format: toxicity, cell-based; conditions: read-out: RatioGI50
[22] = system: Staphylococcus epidermidis; assay: Potency index, ratio of ciprofloxacin MIC to test compound MIC for antibacterial activity against Staphylococcus epidermidis 825/19; format: functional
[23] = system: Staphylococcus epidermidis; assay: Potency index, ratio of ciprofloxacin MIC to test compound MIC for antibacterial activity against Staphylococcus epidermidis 830/19; format: functional
[24] = system: Staphylococcus epidermidis; assay: Potency index, ratio of ciprofloxacin MIC to test compound MIC for antibacterial activity against Staphylococcus epidermidis 845/19; format: functional

SMILES	MIC (Staphylococcus aureus [1]) [µg/mL]	MIC (Staphylococcus aureus [2]) [µg/mL]	MIC (Staphylococcus aureus [3]) [µg/mL]	MIC (Staphylococcus aureus [4]) [µg/mL]	MIC [5] [µg/mL]	MIC [6] [µg/mL]	MIC (Escherichia coli [7]) [µg/mL]	MIC (Escherichia coli [8]) [µg/mL]	MIC (Pseudomonas aeruginosa [9]) [µg/mL]	MIC (Pseudomonas aeruginosa [10]) [µg/mL]	MIC [11] [µg/mL]	MIC [12] [µg/mL]	MIC [13] [µg/mL]	MIC [14] [µg/mL]	MIC [15] [µg/mL]	MIC [16] [µg/mL]	MIC [17] [µg/mL]	MIC [18] [µg/mL]	GI50 (Trypanosoma brucei) [µM]	MIC (Trypanosoma brucei) [µM]	other results
CO[C@H]([C@H](C)[C@H]1O[C@@]2(CC[C@@](C)([C@H]3CC[C@@](CO)([C@@H]4O[C@@H]([C@H]5O[C@@](O)(COC(=O)NCCCl)[C@H](C)C[C@@H]5C)C[C@@H]4C)O3)O2)C[C@H](O)[C@H]1C)[C@H](C)C(=O)O	2 (≈ 2.57 µM)	2 (≈ 2.57 µM)	4 (≈ 5.14 µM)	2 (≈ 2.57 µM)	2 (≈ 2.57 µM)	8 (≈ 10.3 µM)	> 256	> 256	> 256	> 256	2 (≈ 2.57 µM)	4 (≈ 5.14 µM)	4 (≈ 5.14 µM)	4 (≈ 5.14 µM)	4 (≈ 5.14 µM)	4 (≈ 5.14 µM)	4 (≈ 5.14 µM)	4 (≈ 5.14 µM)	3.48	10 (≈ 7.78 µg/mL)	GI50 at 24 h [19]: 22.4 µM; MIC (HL-60): 100 µM (≈ 77.8 µg/mL); selectivity ratio [20]: 10; selectivity ratio [21]: 6.4
CO[C@H]([C@H](C)[C@H]1O[C@@]2(CC[C@@](C)([C@H]3CC[C@@](CO)([C@@H]4O[C@@H]([C@H]5O[C@@](O)(COC(C)=O)[C@H](C)C[C@@H]5C)C[C@@H]4C)O3)O2)C[C@H](O)[C@H]1C)[C@H](C)C(=O)O	2 (≈ 2.8 µM)	1 (≈ 1.4 µM)	2 (≈ 2.8 µM)	2 (≈ 2.8 µM)	1 (≈ 1.4 µM)	2 (≈ 2.8 µM)	> 256	> 256	> 256	> 256	0.25 (≈ 0.35 µM)	1 (≈ 1.4 µM)	1 (≈ 1.4 µM)	1 (≈ 1.4 µM)	2 (≈ 2.8 µM)	2 (≈ 2.8 µM)	1 (≈ 1.4 µM)	2 (≈ 2.8 µM)	0.29	1 (≈ 0.715 µg/mL)	GI50 at 24 h [19]: 5.51 µM; MIC (HL-60): 10 µM (≈ 7.15 µg/mL); selectivity ratio [20]: 10; selectivity ratio [21]: 19
CO[C@H]([C@H](C)[C@H]1O[C@@]2(CC[C@@](C)([C@H]3CC[C@@](CO)([C@@H]4O[C@@H]([C@H]5O[C@@](O)(COC(=O)NC(=O)CCl)[C@H](C)C[C@@H]5C)C[C@@H]4C)O3)O2)C[C@H](O)[C@H]1C)[C@H](C)C(=O)O	2 (≈ 2.52 µM)	1 (≈ 1.26 µM)	2 (≈ 2.52 µM)	2 (≈ 2.52 µM)	2 (≈ 2.52 µM)	2 (≈ 2.52 µM)	> 256	> 256	> 256	> 256	8 (≈ 10.1 µM)	16 (≈ 20.2 µM)	16 (≈ 20.2 µM)	8 (≈ 10.1 µM)	16 (≈ 20.2 µM)	32 (≈ 40.4 µM)	16 (≈ 20.2 µM)	16 (≈ 20.2 µM)	0.0047	0.1 (≈ 0.0792 µg/mL)	GI50 at 24 h [19]: 3.51 µM; MIC (HL-60): 10 µM (≈ 7.92 µg/mL); selectivity ratio [20]: 100; selectivity ratio [21]: 746
CO[C@H]([C@H](C)[C@H]1O[C@@]2(CC[C@@](C)([C@H]3CC[C@@](CO)([C@@H]4O[C@@H]([C@H]5O[C@@](O)(COC(=O)NCCCCl)[C@H](C)C[C@@H]5C)C[C@@H]4C)O3)O2)C[C@H](O)[C@H]1C)[C@H](C)C(=O)O	2 (≈ 2.52 µM)	2 (≈ 2.52 µM)	2 (≈ 2.52 µM)	4 (≈ 5.05 µM)	4 (≈ 5.05 µM)	4 (≈ 5.05 µM)	> 256	> 256	> 256	> 256	2 (≈ 2.52 µM)	4 (≈ 5.05 µM)	4 (≈ 5.05 µM)	4 (≈ 5.05 µM)	8 (≈ 10.1 µM)	4 (≈ 5.05 µM)	8 (≈ 10.1 µM)	4 (≈ 5.05 µM)	3.05	10 (≈ 7.92 µg/mL)	GI50 at 24 h [19]: 18.1 µM; MIC (HL-60): 100 µM (≈ 79.2 µg/mL); selectivity ratio [20]: 10; selectivity ratio [21]: 5.9
CCCCCCCCCC(=O)OC[C@]1(O)O[C@H]([C@H]2C[C@H](C)[C@H]([C@]3(CO)CC[C@H]([C@]4(C)CC[C@]5(C[C@H](O)[C@@H](C)[C@@H]([C@@H](C)[C@@H](OC)[C@H](C)C(=O)O)O5)O4)O3)O2)[C@@H](C)C[C@H]1C	2 (≈ 2.42 µM)	1 (≈ 1.21 µM)	2 (≈ 2.42 µM)	2 (≈ 2.42 µM)	2 (≈ 2.42 µM)	2 (≈ 2.42 µM)	> 256	> 256	> 256	> 256	1 (≈ 1.21 µM)	2 (≈ 2.42 µM)	2 (≈ 2.42 µM)	2 (≈ 2.42 µM)	2 (≈ 2.42 µM)	2 (≈ 2.42 µM)	2 (≈ 2.42 µM)	2 (≈ 2.42 µM)	0.038	1 (≈ 0.827 µg/mL)	GI50 at 24 h [19]: 10 µM; MIC (HL-60): 100 µM (≈ 82.7 µg/mL); selectivity ratio [20]: 100; selectivity ratio [21]: 263

These reach a lower MIC (Staphylococcus aureus [1]). Values come first.

MIC (Staphylococcus aureus [1]) [µg/mL]	MIC (Staphylococcus aureus [2]) [µg/mL]	MIC (Staphylococcus aureus [3]) [µg/mL]	MIC (Staphylococcus aureus [4]) [µg/mL]	MIC [5] [µg/mL]	MIC [6] [µg/mL]	MIC (Escherichia coli [7]) [µg/mL]	MIC (Escherichia coli [8]) [µg/mL]	MIC (Pseudomonas aeruginosa [9]) [µg/mL]	MIC (Pseudomonas aeruginosa [10]) [µg/mL]	MIC [11] [µg/mL]	MIC [12] [µg/mL]	MIC [13] [µg/mL]	MIC [14] [µg/mL]	MIC [15] [µg/mL]	MIC [16] [µg/mL]	MIC [17] [µg/mL]	MIC [18] [µg/mL]	GI50 (Trypanosoma brucei) [µM]	MIC (Trypanosoma brucei) [µM]	SMILES	other results
0.25 (≈ 0.316 µM)	0.25 (≈ 0.316 µM)	0.25 (≈ 0.316 µM)	0.25 (≈ 0.316 µM)	0.25 (≈ 0.316 µM)	0.5 (≈ 0.631 µM)	> 256	> 256	> 256	> 256	0.25 (≈ 0.316 µM)	0.25 (≈ 0.316 µM)	0.25 (≈ 0.316 µM)	0.5 (≈ 0.631 µM)	0.5 (≈ 0.631 µM)	0.5 (≈ 0.631 µM)	0.5 (≈ 0.631 µM)	0.5 (≈ 0.631 µM)	0.27	1 (≈ 0.792 µg/mL)	CO[C@H]([C@H](C)[C@H]1O[C@@]2(CC[C@@](C)([C@H]3CC[C@@](CO)([C@@H]4O[C@@H]([C@H]5O[C@@](O)(COC(=O)Nc6ccccc6)[C@H](C)C[C@@H]5C)C[C@@H]4C)O3)O2)C[C@H](O)[C@H]1C)[C@H](C)C(=O)O	Ratio [22]: <=256; Ratio [23]: <=256; Ratio [24]: <=256; GI50 at 24 h [19]: 8.94 µM; MIC (HL-60): 100 µM (≈ 79.2 µg/mL); selectivity ratio [20]: 100; selectivity ratio [21]: 33.1
1 (≈ 1.24 µM)	1 (≈ 1.24 µM)	1 (≈ 1.24 µM)	2 (≈ 2.48 µM)	1 (≈ 1.24 µM)	2 (≈ 2.48 µM)	> 256	> 256	> 256	> 256	1 (≈ 1.24 µM)	2 (≈ 2.48 µM)	2 (≈ 2.48 µM)	2 (≈ 2.48 µM)	2 (≈ 2.48 µM)	2 (≈ 2.48 µM)	2 (≈ 2.48 µM)	2 (≈ 2.48 µM)	0.31	1 (≈ 0.806 µg/mL)	CO[C@H]([C@H](C)[C@H]1O[C@@]2(CC[C@@](C)([C@H]3CC[C@@](CO)([C@@H]4O[C@@H]([C@H]5O[C@@](O)(COC(=O)NCc6ccccc6)[C@H](C)C[C@@H]5C)C[C@@H]4C)O3)O2)C[C@H](O)[C@H]1C)[C@H](C)C(=O)O	GI50 at 24 h [19]: 19.5 µM; MIC (HL-60): 100 µM (≈ 80.6 µg/mL); selectivity ratio [20]: 100; selectivity ratio [21]: 62.9
1 (≈ 1.29 µM)	1 (≈ 1.29 µM)	1 (≈ 1.29 µM)	1 (≈ 1.29 µM)	1 (≈ 1.29 µM)	1 (≈ 1.29 µM)	> 256	> 256	> 256	> 256	0.5 (≈ 0.644 µM)	2 (≈ 2.57 µM)	1 (≈ 1.29 µM)	1 (≈ 1.29 µM)	2 (≈ 2.57 µM)	2 (≈ 2.57 µM)	2 (≈ 2.57 µM)	1 (≈ 1.29 µM)	2.62	10 (≈ 7.77 µg/mL)	CO[C@H]([C@H](C)[C@H]1O[C@@]2(CC[C@@](C)([C@H]3CC[C@@](CO)([C@@H]4O[C@@H]([C@H]5O[C@@](O)(COC(=O)c6ccccc6)[C@H](C)C[C@@H]5C)C[C@@H]4C)O3)O2)C[C@H](O)[C@H]1C)[C@H](C)C(=O)O	GI50 at 24 h [19]: 18.3 µM; MIC (HL-60): 100 µM (≈ 77.7 µg/mL); selectivity ratio [20]: 10; selectivity ratio [21]: 7
